Results taken from patent EP4650362A1, “NEUROPROTECTIVE PSD-95 POLYPEPTIDE INHIBITOR AND USE THEREOF” (Beijing Tuo Jie Biopharmaceutical Co. Ltd., priority 2023, dated 2024).
Where two headings read alike, the source gives them in different places. Non-standard residues stand in square brackets, D forms with d. Residues, ends and D or L forms follow the SMILES beside them. No end group written: not given here. Tle = CC(C)(C)[C@H](N)C(=O)O; Dab = NCC[C@H](N)C(=O)O; Aib = CC(C)(N)C(=O)O

Tests used:
[1] = plasma stability test with alteplase added, human plasma; format: in vitro ADME; conditions: Human plasma + rt-PA (50 µg/mL alteplase), 25 µM
Experimental: (§1) Solution preparation: An appropriate amount of a test polypeptide compound was weighed out and dissolved in an appropriate amount of 1× PBS to form a 1 mM test solution. NA-1 and NoNO42 were used as positive drugs, propantheline bromide was used as a human plasma test control, and lovastatin was used as a rat plasma test control. Plasma stability test: 12.5 µL of the 1 mM test solution was added to a 495 µL pre-incubated plasma sample. […] For each incubation time, two parallel samples were set. Subsequently, 200 µL of stop solution was added to stop the incubation, and the mixtures were vortexed for 5 min. Then the mixtures were centrifuged at 10,000 rpm at 4 °C for 10 min to remove the protein in the sample, and 70 µL of the supernatant was transferred to a new 96-well plate (70 µL of water was added to each well beforehand) and well mixed. Plasma stability test with alteplase added: An appropriate amount of solid alteplase was weighed out, and an appropriate volume of water was added. The mixture was vortexed to dissolve alteplase, forming a 1 mg/mL solution of alteplase. 250 µL of the 1 mg/mL solution of alteplase was added to 4750 µL of plasma to form a plasma sample containing 50 µg/mL alteplase. The other procedures were the same as in the aforementioned "plasma stability test", with the difference being that the plasma sample containing 50 µg/mL alteplase was used instead of plasma. […] Sample pretreatment: […] LC-MS analysis: […] (2) Mass-spectrometric conditions: The mass spectrometry analysis used an electrospray ionization (ESI) source, a positive ion analysis mode, and a multi-reaction monitoring (MRM) scan mode. […] The plasma stability of the polypeptide compound

[2] = nephrotoxicity in rats (blood urea nitrogen, serum creatinine); format: in vivo, SD rats; conditions: for Blood urea nitrogen (BUN) levels / Serum creatinine (Crea) levels: rat serum; for renal safety concerns: within the tested concentration range, 7-day monitoring period
Experimental: With male SD rats as test animals, the nephrotoxicity of a polypeptide compound administered via single intravenous bolus injection in rats (serum) was studied.
This test was performed synchronously with Test Examples 3.6, with blood collection time points set as follows: before administration (day 0), and days 2, 4, and 7 post-administration. At each time point, 0.3 mL of blood was collected, transferred to a centrifuge tube, and left to stand at room temperature for 1 h. Then the whole blood sample was centrifuged at 4 °C at 4000 g for 5 min, and a serum sample was obtained by separation and cryopreserved at -80 °C.
The blood urea nitrogen (BUN) and serum creatinine levels at each time point were determined through commercially available kits. For blood urea nitrogen, the urease continuous monitoring method was used. For serum creatinine, the sarcosine oxidase method was used. The sample was thawed in a refrigerator at 2 to 8 °C and vortexed for thorough mixing, and 100 µL of the sample was pipetted into a sample cup. The cup was placed in the sample position of a biochemistry analyzer, and assays were performed according to the instructions of the kits. The experimental results are shown in Tables 8-1 and 8-2, FIG. 5A, and FIG. 5B.

[3] = pharmacokinetic study in rats, single intravenous bolus injection; format: in vivo, SD rats; conditions: rats; for Cmax: read-out: Cmax; for half-life: read-out: T1/2 (converted)
Experimental: With male SD rats as test animals, the pharmacokinetic behavior of polypeptide compounds administered via single intravenous bolus injection in rats (plasma) was studied.
Male SD rats weighing 170 to 200 grams and aged 4-6 weeks were purchased from Beijing Vital River Laboratory Animal Technology Co., Ltd. The polypeptide compounds were dissolved in 1× PBS, and the polypeptide compound solutions were then administered via intravenous bolus injection over 10 min at a dose of 3 nmol/g, with three animals per group. At each of the time points of 2 min, 8 min, 15 min, 30 min, 45 min, 60 min, and 120 min after the end of bolus injection, 0.2 mL of blood was collected and transferred to an EDTA-K2 anticoagulation centrifuge tube. The whole blood sample was centrifuged at 4 °C at 4000 g for 5 min, and a plasma sample was obtained by separation and cryopreserved at -80 °C.
The pharmacokinetic parameters of polypeptide compound 22, administered via intravenous bolus injection, in rats were determined using a similar method, with the difference being that an enzyme inhibitor was added immediately after blood collection.
The plasma concentrations of the test compounds were determined using the method in Test Example 3.4.3. Plasma concentration-time curves were plotted, and the pharmacokinetic parameters were calculated using PKSolver software. The experimental results are shown in Table 5-1, Table 5-2, and FIG. 3.

[4] = plasma stability test, human plasma; format: in vitro ADME; conditions: Human plasma, 25 µM; for Relative remaining compound content (%): 0min (standard 100%); for remaining at 10 min, 25 µM / remaining at 20 min, 25 µM / remaining at 0.5 h, 25 µM / remaining at 1 h, 25 µM / remaining at 2 h, 25 µM: read-out: Relative remaining compound content (%); for remaining at 0.5 h, 25 µM: 30min; for remaining at 1 h, 25 µM: 60min; for remaining at 2 h, 25 µM: 120min
Experimental: as §1, with “mixed.” for “mixed. Plasma stability test with alteplase added: An appropriate amount of solid alteplase was weighed out, and an appropriate volume of water was added. The mixture was vortexed to dissolve alteplase, forming a 1 mg/mL solution of alteplase. 250 µL of the 1 mg/mL solution of alteplase was added to 4750 µL of plasma to form a plasma sample containing 50 µg/mL alteplase. The other procedures were the same as in the aforementioned "plasma stability test", with the difference being that the plasma sample containing 50 µg/mL alteplase was used instead of plasma.”

[5] = 0.3 nmol/g, day 0 (before administration)
[6] = 1 nmol/g, day 0 (before administration)
[7] = 3 nmol/g, day 0 (before administration)
[8] = male, SD, rat, plasma, intravenous bolus injection over 10 min, 3 nmol/g, n = 3
[9] = intravenous bolus injection over 10 min, 3 nmol/g, n = 3
[10] = intravenous bolus injection, enzyme inhibitor added immediately after blood collection, n = 3

For `CC(C)[C@H](NC(=O)[C@H](CC(=O)O)NC(=O)[C@@H](NC(=O)[C@@H](NC(=O)[C@@H](NC(=O)[C@@H](NC(=O)[C@H](CCN)NC(=O)C(C)(C)NC(=O)CNC(=O)[C@@H](CCCNC(=N)N)NC(=O)[C@@H](CCCNC(=N)N)NC(=O)[C@@H](CCCNC(=N)N)NC(=O)[C@@H](CCC(N)=O)NC(=O)[C@@H](CCCNC(=N)N)NC(=O)[C@@H](CCCNC(=N)N)NC(=O)[C@@H](CCCCN)NC(=O)[C@@H](CCCCN)NC(=O)[C@@H](CCCNC(=N)N)NC(=O)CNC(=O)[C@H](N)Cc1ccc(O)cc1)[C@@H](C)O)C(C)(C)C)C(C)(C)C)[C@@H](C)O)C(=O)O` [Polypeptide compound 14, y-G-r-k-k-r-r-q-r-r-r-G-Aib-Dab-T-Tle-Tle-T-D-V] (H-[dY]G[dR][dK][dK][dR][dR][dQ][dR][dR][dR]G[Aib][Dab]T[Tle][Tle]TDV-OH), the “Relative remaining compound content (%)” value ([1]; 0min (standard 100%)) was 100.0%, the “Relative remaining compound content (%)” value ([1]; 10min) was 98.6% and the “Relative remaining compound content (%)” value ([1]; 20min) was 89.8%. The “Relative remaining compound content (%)” value ([1]; 30min) was 85.8%, the “Relative remaining compound content (%)” value ([1]; 60min) was 91.2% and the “Relative remaining compound content (%)” value ([1]; 120min) was 92.3%. The “Blood urea nitrogen (BUN) levels” value [2, 5] was 11.8 ± 0.1 mg/dL, the “Serum creatinine (Crea) levels” value [2, 5] was 0.192 ± 0.006 mg/dL and the “Blood urea nitrogen (BUN) levels” value ([2]; 0.3 nmol/g, day 2) was 13.7 ± 3.7 mg/dL. For the same compound, the “Serum creatinine (Crea) levels” value ([2]; 0.3 nmol/g, day 2) was 0.200 ± 0.015 mg/dL, the “Blood urea nitrogen (BUN) levels” value ([2]; 0.3 nmol/g, day 4) was 16.6 ± 4.6 mg/dL and the “Serum creatinine (Crea) levels” value ([2]; 0.3 nmol/g, day 4) was 0.212 ± 0.024 mg/dL. The “Blood urea nitrogen (BUN) levels” value ([2]; 0.3 nmol/g, day 7) was 15.3 ± 5.2 mg/dL, the “Serum creatinine (Crea) levels” value ([2]; 0.3 nmol/g, day 7) was 0.205 ± 0.023 mg/dL and the “Blood urea nitrogen (BUN) levels” value [2, 6] was 14.2 ± 3.0 mg/dL. For the same compound, the “Serum creatinine (Crea) levels” value [2, 6] was 0.195 ± 0.013 mg/dL, the “Blood urea nitrogen (BUN) levels” value ([2]; 1 nmol/g, day 2) was 15.5 ± 1.8 mg/dL and the “Serum creatinine (Crea) levels” value ([2]; 1 nmol/g, day 2) was 0.203 ± 0.018 mg/dL. The “Blood urea nitrogen (BUN) levels” value ([2]; 1 nmol/g, day 4) was 17.1 ± 2.7 mg/dL, the “Serum creatinine (Crea) levels” value ([2]; 1 nmol/g, day 4) was 0.208 ± 0.017 mg/dL and the “Blood urea nitrogen (BUN) levels” value ([2]; 1 nmol/g, day 7) was 13.7 ± 1.4 mg/dL. The “Serum creatinine (Crea) levels” value ([2]; 1 nmol/g, day 7) was 0.221 ± 0.005 mg/dL, the “Blood urea nitrogen (BUN) levels” value [2, 7] was 16.3 ± 1.0 mg/dL and the “Serum creatinine (Crea) levels” value [2, 7] was 0.22 ± 0.015 mg/dL. For the same compound, the “Blood urea nitrogen (BUN) levels” value ([2]; 3 nmol/g, day 2) was 16.2 ± 0.7 mg/dL, the “Serum creatinine (Crea) levels” value ([2]; 3 nmol/g, day 2) was 0.208 ± 0.006 mg/dL and the “Blood urea nitrogen (BUN) levels” value ([2]; 3 nmol/g, day 4) was 16.0 ± 2.0 mg/dL. The “Serum creatinine (Crea) levels” value ([2]; 3 nmol/g, day 4) was 0.226 ± 0.012 mg/dL, the “Blood urea nitrogen (BUN) levels” value ([2]; 3 nmol/g, day 7) was 14.5 ± 1.7 mg/dL and the “Serum creatinine (Crea) levels” value ([2]; 3 nmol/g, day 7) was 0.233 ± 0.014 mg/dL. The renal safety concerns ([2]; rats) was “neither NA-1 nor polypeptide compound 14 caused significant renal safety concerns”, the AUC(0-inf) [3, 8] was 9900 ng·h/mL and the MRT [3, 8] was 71.4 min. The AUC(0-t) ([3]; male, SD, rat, plasma, intravenous bolus injection over 10 min, 3 nmol/g, n = 3, read-out: AUC(0-t)) was 7910 ng·h/mL, the Cmax [3, 8] was 15100 ng/mL and the half-life [3, 8] was 56.4 min. For the same compound, the AUClast/dose [3, 9] was 1041, the “Relative remaining compound content (%)” value [4] was 100.0% and the remaining at 10 min, 25 µM [4] was 102%. The remaining at 20 min, 25 µM [4] was 101%, the remaining at 0.5 h, 25 µM [4] was 97.3% and the remaining at 1 h, 25 µM [4] was 103%. It also gave a remaining at 2 h, 25 µM [4] of 105%.
In the case of “YGRKKRRQRRRKLSSIESDV [NA-1, YGRKKRRQR RRKLSSIESDV, reference compound]”, the “Relative remaining compound content (%)” value ([1]; 0min (standard 100%)) is reported as 100.0%, the “Relative remaining compound content (%)” value ([1]; 10min) is reported as 23.9% and the “Relative remaining compound content (%)” value ([1]; 20min) is reported as 7.6%. The “Relative remaining compound content (%)” value ([1]; 30min) was 3.4%, the “Relative remaining compound content (%)” value ([1]; 60min) was 0.9% and the “Relative remaining compound content (%)” value ([1]; 120min) was 0.3%. For the same compound, the “Blood urea nitrogen (BUN) levels” value [2, 7] was 10.8 ± 1.9 mg/dL, the “Serum creatinine (Crea) levels” value [2, 7] was 0.198 ± 0.007 mg/dL and the “Blood urea nitrogen (BUN) levels” value ([2]; 3 nmol/g, day 2) was 14.8 ± 1.9 mg/dL. The “Serum creatinine (Crea) levels” value ([2]; 3 nmol/g, day 2) was 0.215 ± 0.003 mg/dL, the “Blood urea nitrogen (BUN) levels” value ([2]; 3 nmol/g, day 4) was 17.2 ± 3.6 mg/dL and the “Serum creatinine (Crea) levels” value ([2]; 3 nmol/g, day 4) was 0.208 ± 0.008 mg/dL. For the same compound, the “Blood urea nitrogen (BUN) levels” value ([2]; 3 nmol/g, day 7) was 19 ± 3.3 mg/dL, the “Serum creatinine (Crea) levels” value ([2]; 3 nmol/g, day 7) was 0.209 ± 0.009 mg/dL and the “increase of blood urea nitrogen level compared to before administration” value ([2]; rats, 3 nmol/g, day 4 and day 7) was at most 2 fold. The renal safety concerns ([2]; rats) was “neither NA-1 nor polypeptide compound 14 caused significant renal safety concerns”, the Tmax ([3]; male, SD, rat, in vivo, 3 nmol/g, intravenous bolus injection, enzyme inhibitor added immediately after blood collection, n = 3) was 12 min and the Cmax ([3]; male, SD, rat, in vivo, iv, 3 nmol/g, intravenous bolus injection over 10 min, 3 nmol/g, n = 3) was 3800 ng/mL. The Cmax ([3]; male, SD, rat, in vivo, iv, 3 nmol/g, intravenous bolus injection, enzyme inhibitor added immediately after blood collection, n = 3) was 7250 ng/mL, the half-life ([3]; male, SD, rat, in vivo, intravenous bolus injection over 10 min, 3 nmol/g, n = 3) was 2.4 min and the “AUC(0-t)” value [3, 9] was 309 ng·h/mL. For the same compound, the “AUC(inf)” value [3, 9] was 315 ng·h/mL, the AUClast/dose [3, 9] was 41 and the MRTO-inf [3, 9] was 3.6 min. The half-lives ([3]; intravenous bolus injection, 3 nmol/g (Table 5-1)) was “less than 3 min”, the “AUC(inf)” value [3, 10] was 1248 ng·h/mL and the AUClast/dose [3, 10] was 184.0. The MRTO-inf [3, 10] was 13.2 min, the T1/2 [3, 10] was 2.4 min and the “Relative remaining compound content (%)” value [4] was 100.0%. The remaining at 10 min, 25 µM [4] was 76.4%, the remaining at 20 min, 25 µM [4] was 74.9% and the remaining at 0.5 h, 25 µM [4] was 70.6%. The remaining at 1 h, 25 µM [4] was 53.9% and the remaining at 2 h, 25 µM [4] was 25.1%.
